Test results as given in patent publication US20230398130A1, “METHODS AND COMPOSITIONS FOR DIFFERENTIATING STEM CELLS” (Massachusetts Institute of Technology, priority 2020, published 2023).
Where a name gives a salt, the structure may show the parent alone.

Columns and labels:
ISC-enriched organoids [1] = test: Primary screen, 384-well 2.5-D organoid differentiation (ENR+CD, 6 days, Target Selective Inhibitor Library, vs whole-plate median): ATP (CellTiter-Glo 3D, CTG); conditions: for Dose.FC.CTG: FC vs plate median; for SSMD.CTG: strictly standardized mean difference; for Dose.FC.CTG (log 2 fold change, ATP): vs plate median
ISC-enriched organoids [2] = test: Secondary (validation) screen, 384-well 2.5-D, ENR+CD 6 days, n=8 wells, vs ENR+CD+DMSO control: ATP (CTG); type: cell-based, murine
Method: (§1) Drugs were tested at a narrowed dose range around each treatment's identified optimal dose from the primary screen (4× below, 2× above and below).
(§2) High-throughput screening.
(§3) Secondary lysozyme secretion assay screen. Confirmatory secondary screening with primary hits was performed using the above 384-well plate method. The screen was conducted with 4-plate replicates with a base media of ENR+CD. Media was supplemented with compound at day 0 and day 3 (n=8 well replicates per dose) at four different doses: two-fold above, two-fold below, and four-fold below the optimal final dose for each respective treatment. Additionally, each plate carried a large number of ENR+DMSO or ENR+CD+DMSO (vehicle) control wells (n=100 for ATP, and n=25 for LYZ.NS and LYZ.S) for robust normalization. ATP, non-stimulated lysozyme activity and CCh-stimulated lysozyme activity was again measured and the collected data was again processed in a custom R-script, per primary screen with slight modification. Values were log10 transformed, and a plate-wise FC was calculated for each well based on the median value of ENR+CD+DMSO (vehicle) control wells to normalize plate to plate variability.

ISC-enriched organoids [3] = test: Secondary (validation) screen, 384-well 2.5-D, ENR+CD 6 days, n=8 wells, vs ENR+CD+DMSO control: carbachol-induced lysozyme secretion (LYZ.S); type: cell-based, murine
Method: as §1, §2, §3

ISC-enriched organoids [4] = test: Secondary (validation) screen, 384-well 2.5-D, ENR+CD 6 days, n=8 wells, vs ENR+CD+DMSO control: basal lysozyme secretion (LYZ.NS); type: cell-based, murine
Method: as §1, §2, §3

ISC-enriched organoids [5] = test: Primary screen, 384-well 2.5-D organoid differentiation (ENR+CD, 6 days): basal lysozyme secretion (LYZ.NS); type: cell-based, murine; conditions: for Dose.FC.LYZ.NS / Z.LYZ.NS / SSMD.LYZ.NS: primary screen; for Dose.FC.LYZ.NS: FC vs plate median; for Z.LYZ.NS: standard z score; for SSMD.LYZ.NS: strictly standardized mean difference; for Dose.FC.LYZ.NS (log 2 fold change, basal lysozyme secretion): vs plate median
Source text: as §2

ISC-enriched organoids [6] = test: Primary screen, 384-well 2.5-D organoid differentiation (ENR+CD, 6 days): carbachol-induced lysozyme secretion (LYZ.S); type: cell-based, murine; conditions: for Dose.FC.LYZ.S / Z.LYZ.S / SSMD.LYZ.S: primary screen; for Dose.FC.LYZ.S: FC vs plate median; for Z.LYZ.S: standard z score; for SSMD.LYZ.S: strictly standardized mean difference; for Dose.FC.LYZ.S (log 2 fold change, carbachol-induced lysozyme secretion): vs plate median
Source text: as §2

[7] = 1st of the 4 dose lines of the treatment (dose not given)
[8] = 2nd of the 4 dose lines of the treatment (dose not given)
[9] = 3rd of the 4 dose lines of the treatment (dose not given)
[10] = 4th of the 4 dose lines of the treatment (dose not given)

## C[C@H](NCc1ccc(OCc2cccc(F)c2)cc1)C(N)=O [Safinamide Mesylate]
ISC-enriched organoids [1]; Dose 0.08 uM, primary screen
  Z.CTG (standard z score): 0.633
ISC-enriched organoids [1]; Dose 0.40 uM, primary screen
  Z.CTG (standard z score): 0.575
ISC-enriched organoids [1]; Dose 2.00 uM, primary screen
  Z.CTG (standard z score): 0.627
ISC-enriched organoids [1]; Dose 10.00 uM, primary screen
  Z.CTG (standard z score): 0.883
ISC-enriched organoids [2]; Dose 0.50 uM
  Z.CTG: −0.127
  repSSMD.CTG: −0.118
ISC-enriched organoids [2]; Dose 1.00 uM
  Z.CTG: −0.743
  repSSMD.CTG: −0.547
ISC-enriched organoids [2]; Dose 4.00 uM
  Z.CTG: −0.022
  repSSMD.CTG: −0.013
ISC-enriched organoids [2]; dose 2.00 uM
  Z.CTG: −0.098
  repSSMD.CTG: −0.060
ISC-enriched organoids [3]; Dose 0.50 uM
  Z.LYZ.S: −1.637
  repSSMD.LYZ.S: −2.413
ISC-enriched organoids [3]; Dose 1.00 uM
  Z.LYZ.S: −2.259
  repSSMD.LYZ.S: −3.571
ISC-enriched organoids [3]; Dose 4.00 uM
  Z.LYZ.S: −0.658
  repSSMD.LYZ.S: −0.942
ISC-enriched organoids [3]; dose 2.00 uM
  Z.LYZ.S: −0.757
  repSSMD.LYZ.S: −1.243
ISC-enriched organoids [4]; Dose 0.50 uM
  Z.LYZ.NS: −1.244
  repSSMD.LYZ.NS: −1.484
ISC-enriched organoids [4]; Dose 1.00 uM
  Z.LYZ.NS: −1.847
  repSSMD.LYZ.NS: −2.985
ISC-enriched organoids [4]; Dose 4.00 uM
  Z.LYZ.NS: −0.272
  repSSMD.LYZ.NS: −0.431
ISC-enriched organoids [4]; dose 2.00 uM
  Z.LYZ.NS: −0.368
  repSSMD.LYZ.NS: −0.556

## COc1cc(Nc2c(C#N)cnc3cc(OCCCN4CCN(C)CC4)c(OC)cc23)c(Cl)cc1Cl [Bosutinib (SKI-606), Bosutinib]
ISC-enriched organoids [1]; primary screen, dose 0.08 uM, standard z score of FC
  Z.CTG: 1.499
ISC-enriched organoids [1]; primary screen, dose 0.40 uM, standard z score of FC
  Z.CTG: 0.720
ISC-enriched organoids [1]; primary screen, dose 2.00 uM, standard z score of FC
  Z.CTG: −0.405
ISC-enriched organoids [1]; primary screen, dose 10.00 uM, standard z score of FC
  Z.CTG: −1.595
ISC-enriched organoids [2]; Dose 0.02 uM
  Z.CTG: 1.944
  repSSMD.CTG: 1.251
ISC-enriched organoids [2]; Dose 0.04 uM
  Z.CTG: 1.254
  repSSMD.CTG: 0.876
ISC-enriched organoids [2]; dose 0.08 uM
  Z.CTG: 0.735
  repSSMD.CTG: 0.584
ISC-enriched organoids [3]; Dose 0.02 uM
  repSSMD.LYZ.S: 1.147
ISC-enriched organoids [3]; Dose 0.04 uM
  Z.LYZ.S: −0.663
  repSSMD.LYZ.S: −0.977
ISC-enriched organoids [3]; dose 0.08 uM
  Z.LYZ.S: −0.554
  repSSMD.LYZ.S: −0.892
ISC-enriched organoids [4]; Dose 0.02 uM
  Z.LYZ.NS: 1.061
  repSSMD.LYZ.NS: 1.620
ISC-enriched organoids [4]; Dose 0.04 uM
  Z.LYZ.NS: −0.535
  repSSMD.LYZ.NS: −0.666
ISC-enriched organoids [4]; dose 0.08 uM
  Z.LYZ.NS: −0.562
  repSSMD.LYZ.NS: −0.903

## Cc1ccc(C(=O)N(CCCN)[C@@H](c2nc3cc(Cl)ccc3c(=O)n2Cc2ccccc2)C(C)C)cc1 [Ispinesib (SB-715992)]
ISC-enriched organoids [1]; Dose 0.08 uM, primary screen
  Dose.FC.CTG: −0.323 log 2 fold change
ISC-enriched organoids [1]; Dose 0.08 uM, primary screen, standard z score
  Z.CTG: −0.772
ISC-enriched organoids [1]; Dose 0.40 uM, primary screen
  Dose.FC.CTG: −0.518 log 2 fold change
ISC-enriched organoids [1]; Dose 0.40 uM, primary screen, standard z score
  Z.CTG: −1.238
ISC-enriched organoids [1]; Dose 2.00 uM, primary screen
  Dose.FC.CTG: −0.511 log 2 fold change
ISC-enriched organoids [1]; Dose 2.00 uM, primary screen, standard z score
  Z.CTG: −1.220
ISC-enriched organoids [1]; Dose 10.00 uM, primary screen
  Dose.FC.CTG: −0.713 log 2 fold change
ISC-enriched organoids [1]; Dose 10.00 uM, primary screen, standard z score
  Z.CTG: −1.704
ISC-enriched organoids [1]; primary screen, 1st of the 4 dose lines of the treatment (dose not given)
  SSMD.CTG: −0.942
ISC-enriched organoids [1]; primary screen, 2nd of the 4 dose lines of the treatment (dose not given)
  SSMD.CTG: −0.971
ISC-enriched organoids [1]; primary screen, 3rd of the 4 dose lines of the treatment (dose not given)
  SSMD.CTG: −1.118
ISC-enriched organoids [1]; primary screen, 4th of the 4 dose lines of the treatment (dose not given)
  SSMD.CTG: −1.236
ISC-enriched organoids [5]; Dose 0.08 uM
  Dose.FC.LYZ.NS: −0.222 log 2 fold change
  Z.LYZ.NS: −1.931
ISC-enriched organoids [5]; Dose 0.40 uM
  Dose.FC.LYZ.NS: −0.191 log 2 fold change
  Z.LYZ.NS: −1.663
ISC-enriched organoids [5]; Dose 2.00 uM
  Dose.FC.LYZ.NS: −0.196 log 2 fold change
  Z.LYZ.NS: −1.709
ISC-enriched organoids [5]; Dose 10.00 uM
  Dose.FC.LYZ.NS: −0.201 log 2 fold change
  Z.LYZ.NS: −1.752
ISC-enriched organoids [5]; [7]
  SSMD.LYZ.NS: −1.681
ISC-enriched organoids [5]; [8]
  SSMD.LYZ.NS: −1.354
ISC-enriched organoids [5]; [9]
  SSMD.LYZ.NS: −1.617
ISC-enriched organoids [5]; [10]
  SSMD.LYZ.NS: −1.093
ISC-enriched organoids [6]; Dose 0.08 uM
  Dose.FC.LYZ.S: −0.271 log 2 fold change
ISC-enriched organoids [6]; Dose 0.40 uM
  Dose.FC.LYZ.S: −0.296 log 2 fold change
ISC-enriched organoids [6]; Dose 2.00 uM
  Dose.FC.LYZ.S: −0.287 log 2 fold change
ISC-enriched organoids [6]; Dose 10.00 uM
  Dose.FC.LYZ.S: −0.286 log 2 fold change
ISC-enriched organoids [6]; [7]
  Z.LYZ.S: −1.753
  SSMD.LYZ.S: −1.495
ISC-enriched organoids [6]; [8]
  Z.LYZ.S: −1.914
  SSMD.LYZ.S: −1.509
ISC-enriched organoids [6]; [9]
  Z.LYZ.S: −1.859
  SSMD.LYZ.S: −1.657
ISC-enriched organoids [6]; [10]
  Z.LYZ.S: −1.850
  SSMD.LYZ.S: −1.525

## COc1cc2/c(=N/c3ccc(Br)cc3F)nc[nH]c2cc1OCC1CCN(C)CC1 [Vandetanib (ZD6474)]
ISC-enriched organoids [1]; dose 0.08 uM
  Z.CTG (standard z score): −1.547
  Dose.FC.CTG (log 2 fold change, ATP): −0.648
ISC-enriched organoids [1]; dose 0.40 uM
  Z.CTG (standard z score): −0.874
  Dose.FC.CTG (log 2 fold change, ATP): −0.366
ISC-enriched organoids [1]; dose 2.00 uM
  Z.CTG (standard z score): −2.089
  Dose.FC.CTG (log 2 fold change, ATP): −0.874
ISC-enriched organoids [1]; dose 10.00 uM
  Z.CTG (standard z score): −2.880
  Dose.FC.CTG (log 2 fold change, ATP): −1.206
ISC-enriched organoids [5]; dose 0.08 uM
  Z.LYZ.NS (standard z score): −0.594
  Dose.FC.LYZ.NS (log 2 fold change, basal lysozyme secretion): −0.068
ISC-enriched organoids [5]; dose 0.40 uM
  Z.LYZ.NS (standard z score): −0.792
  Dose.FC.LYZ.NS (log 2 fold change, basal lysozyme secretion): −0.091
ISC-enriched organoids [5]; dose 2.00 uM
  Z.LYZ.NS (standard z score): −2.356
  Dose.FC.LYZ.NS (log 2 fold change, basal lysozyme secretion): −0.271
ISC-enriched organoids [5]; dose 10.00 uM
  Z.LYZ.NS (standard z score): −2.594
  Dose.FC.LYZ.NS (log 2 fold change, basal lysozyme secretion): −0.298
ISC-enriched organoids [6]; dose 0.08 uM
  Dose.FC.LYZ.S (log 2 fold change, carbachol-induced lysozyme secretion): −0.139
ISC-enriched organoids [6]; dose 0.40 uM
  Dose.FC.LYZ.S (log 2 fold change, carbachol-induced lysozyme secretion): −0.054
ISC-enriched organoids [6]; dose 2.00 uM
  Dose.FC.LYZ.S (log 2 fold change, carbachol-induced lysozyme secretion): −0.384
ISC-enriched organoids [6]; dose 10.00 uM
  Dose.FC.LYZ.S (log 2 fold change, carbachol-induced lysozyme secretion): −0.494
